# Results as given in patent US9175320B2, “Processes for the preparation of (R)-2-(7-4-cyclopentyl-3-(trifluoromethyl)benzyloxy)-1,2,3,4-tetrahydrocyclopenta[B]indol-3-yl)acetic acid and salts thereof” (ARENA PHARMACEUTICALS, INC., priority 2010, dated 2015).
# Assays:
# [1] = molecular target: S1P1 receptor (Homo sapiens (Human), UniProt P21453); assay: HTRF assay for direct cAMP measurement; type: cell-based; details: recombinant CHO-K1 cells stably transfected with S1P1
# From the text: CHO-K1 cells were obtained from ATCC® (Manassas, Va.; Catalog #CCL-61). […] The HTRF® assay has been used to determine EC50 values for S1P1 receptor agonists. Principle of the assay: HTRF® assay kit was purchased from Cisbio-US, Inc. (Bedford, Mass.; Catalog #62AM4PEC). The HTRF® assay supported by the kit is a competitive immunoassay between endogenous cAMP produced by the CHO-K1 cells and tracer cAMP labeled with the dye d2. The tracer binding is visualized by a monoclonal anti-cAMP antibody labeled with Cryptate. The specific signal (i.e., fluorescence resonance energy transfer, FRET) is inversely proportional to the concentration of unlabeled cAMP in the standard or sample. Standard curve: The fluorescence ratio (665 nm/620 nm) of the standards (0.17 to 712 nM cAMP) included in the assay was calculated and used to generate a cAMP standard curve according to the kit manufacturer's instructions. The fluorescence ratio of the samples (test compound or compound buffer) was calculated and used to deduce respective cAMP concentrations by reference to the cAMP standard curve. […] The plate was then further incubated at room temperature for 1 hour, after which the assay plate was read. Assay readout: HTRF® readout was accomplished using a PHERAstar (BMG LABTECH Inc., Durham, N.C.) or EnVision™ (PerkinElmer, Fremont Calif.) microplate reader.
# [2] = tested on: BALB/c mice; assay: Mouse Peripheral Lymphocyte Lowering (PLL) assay; type: in vivo; details: 1.00 mg/kg oral dose, 5 hours post-dose, male BALB/c mice, vs vehicle (FIG. 1)
# Protocol: Animals: Male BALB/c mice (Charles River Laboratories, Wilmington, Mass.) were housed four per cage and maintained in a humidity-controlled (40 to 60%) and temperature-controlled (68 to 72° F.) facility on a 12 h:12 h light/dark cycle (lights on at 6:30 am) with free access to food (Harlan Teklad, Orange, Calif., Rodent Diet 8604) and water. Mice were allowed one week of habituation to the animal facility before testing. PLL Assay: […] Peripheral blood samples were collected at 5 hours post-dose. The mice were anesthetized with isoflurane and blood was collected via cardiac puncture. A complete cell count (CBC), including lymphocyte count, was obtained using a CELL-DYN® 3700 (Abbott Laboratories, Abbott Park, Ill.) instrument. Results are presented in FIG. 1, in which peripheral blood lymphocyte (PBL) count is shown for the 5 hour group.
# [3] = tested on: Sprague-Dawley rats; assay: Rat Peripheral Lymphocyte Lowering (PLL) assay; type: in vivo; details: 1.00 mg/kg oral dose, 5 hours post-dose, male Sprague-Dawley rats, vs vehicle (FIG. 2)
# Protocol: Animals: Male Sprague-Dawley rats (7 weeks of age at start of study) (Charles River Laboratories) were housed two per cage and maintained in a humidity-controlled (40-60%) and temperature-controlled (68-72° F.) facility on a 12 h: 12 h light/dark cycle (lights on at 6:30 am) with free access to food (Harlan Teklad, Orange, Calif., Rodent Diet 8604) and water. Rats were allowed one week of habituation to the animal facility before testing. PLL Assay: […] Peripheral blood samples were collected at 5 hours post-dose. Blood was collected via indwelling catheter. A complete cell count (CBC), including lymphocyte count, was obtained using a CELL-DYN® 3700 (Abbott Laboratories, Abbott Park, Ill.) instrument. Results are presented in FIG. 2, in which peripheral blood lymphocyte (PBL) count is shown for the 5 hour group.
# [4] = tested on: Female Lewis rats; assay: Collagen-induced arthritis rat model; type: in vivo; details: 0.3, 1 and 3 mg/kg p.o., q.d., day 0 through day 16 (FIG. 3)
# Protocol: Female Lewis rats were used in this study. Acclimated animals were anesthetized with isoflurane and given the first collagen injection (day 0). On day 6, they were anesthetized again for the second collagen injection. Collagen was prepared by making a 4 mg/mL solution in 0.01N acetic acid. Equal volumes of collagen and incomplete Freund's adjuvant were emulsified by hand mixing until a bead of this material held its form when placed in water. Each animal received 300 μL of the mixture each time, spread over 3 subcutaneous sites on the back. Treatment (p.o., q.d., 5 mL/kg dosing volume) began on day 0 and continued through day 16 with vehicle or compounds given at 24 h intervals. Rats were weighed on days 0, 3, 6 and 9 through 17 and caliper measurements of the ankles taken on days 9 through 17.
# [5] = tested on: C57BL/6 mice; assay: MOG-induced experimental autoimmune encephalomyelitis (EAE) in mice; type: in vivo, mouse; details: 0.3, 1 and 3 mg/kg orally once a day from day 3 until day 21 (FIG. 4)
# [6] = tested on: Sprague-Dawley rats; assay: Cardiac telemetry in the rat (bradycardia assay); type: in vivo; details: oral, vehicle PEG400, heart rate measured over a 120 min period, vs vehicle
# Protocol: Animals: Male Sprague-Dawley rats (250-300 g at time of surgery) were implanted by Charles River Laboratories (Wilmington, Mass.) with cardiac transmitting devices (Data Sciences PhysioTel C50-PXT) into the peritoneal space, with a pressure-sensing catheter inserted into the descending aorta. Rats are allowed at least one week to recover. Rats were housed in individual cages and maintained in a humidity-controlled (30-70%) and temperature-controlled (20-22° C.) facility on a 12 h:12 h light/dark cycle (lights on at 7:00 am) with free access to food (Harlan-Teklad, Orange, Calif., Rodent Diet 8604) and water. Rats were allowed one week of habituation to the animal facility before testing. Measurement of cardiovascular parameters: The implanted transmitting devices transmitted continuous measurements of blood pressure (systolic, diastolic, mean arterial, pulse), heart rate, body temperature, and motor activity in freely moving conscious animals. […] Telemetry recording occurred over a 21-h period, starting at noon and continuing until 9:00 am the following day. A maximum of eight rats were tested at a time, and the same eight rats were utilized for all treatment groups in a within-subject design. Drug treatment: […] A full study (vehicle+3 doses) required four separate testing sessions, which occur on Mondays-Tuesdays and Thursdays-Fridays. […]
# [7] = Hale et al. 2004; cited from earlier work
# [8] = molecular target: S1P3 receptor (Homo sapiens (Human), UniProt Q99500); details: due to agonism of the S1P3 receptor; cited from earlier work
# [9] = tested on: patients with multiple sclerosis; details: Phase II, relapsing-remitting multiple sclerosis; cited from earlier work
# [10] = tested on: dendritic cells infected with Francisella tularensis; details: Bar-Haim et al. 2008; cited from earlier work
# [11] = short-term high dose; cited from earlier work
# [12] = tested on: mice; details: by reducing the number of mature osteoclasts attached to the bone surface; cited from earlier work
# [13] = tested on: mice; details: oral administration to mice; cited from earlier work
# [14] = spared nerve injury model; cited from earlier work
# [15] = tested on: mice; details: murine; cited from earlier work
# [16] = tested on: C57BL/6 mice; details: prophylactic oral administration, 1 mg/kg, three times a week; cited from earlier work
# Sequence of S1P1 receptor (P21453 whole entry): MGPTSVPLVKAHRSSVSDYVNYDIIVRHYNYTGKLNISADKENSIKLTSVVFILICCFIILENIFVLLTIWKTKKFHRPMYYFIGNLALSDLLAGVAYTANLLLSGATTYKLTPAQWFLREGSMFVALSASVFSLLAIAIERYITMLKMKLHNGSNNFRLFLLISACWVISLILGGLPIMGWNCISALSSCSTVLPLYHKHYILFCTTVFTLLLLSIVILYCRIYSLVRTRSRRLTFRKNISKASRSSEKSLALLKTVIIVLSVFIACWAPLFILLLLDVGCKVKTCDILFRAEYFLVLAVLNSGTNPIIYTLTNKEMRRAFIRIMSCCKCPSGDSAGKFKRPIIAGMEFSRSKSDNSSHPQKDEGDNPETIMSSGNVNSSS
# Sequence of S1P3 receptor (Q99500 whole entry): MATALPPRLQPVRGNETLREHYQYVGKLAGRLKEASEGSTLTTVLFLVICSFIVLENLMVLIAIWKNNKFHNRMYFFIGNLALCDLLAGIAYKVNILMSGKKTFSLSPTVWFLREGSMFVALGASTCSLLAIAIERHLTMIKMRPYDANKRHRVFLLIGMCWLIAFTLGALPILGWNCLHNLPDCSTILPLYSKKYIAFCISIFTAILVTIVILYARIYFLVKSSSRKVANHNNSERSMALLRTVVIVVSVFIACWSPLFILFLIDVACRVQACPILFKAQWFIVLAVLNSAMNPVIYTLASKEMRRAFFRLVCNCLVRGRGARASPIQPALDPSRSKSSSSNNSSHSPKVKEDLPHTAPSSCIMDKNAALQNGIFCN
Compound,S1P1 receptor agonism (decreased cAMP concentration) [1],EC50 ([1]; n = 22) [nM],peripheral blood lymphocyte (PBL) count lowering [2],peripheral blood lymphocyte (PBL) count lowering [3],mean ankle diameter [4],severity of disease symptoms (clinical score) in EAE [5],heart rate (bradycardia) [6],induction of lymphopenia (PLL) [7],adverse event in clinical trials [8],MRI lesions and clinical disease activity [9],migration of infected dendritic cells to the mediastinal lymph node [10],ocular infiltrates [11],ovariectomy-induced osteoporosis [12],VEGF-induced vascular permeability [13],nociceptive behavior [14],initiation of contact hypersensitivity [15],development of EAMG [16]
"O=C(O)C[C@H]1CCc2c1[nH]c1ccc(OCc3ccc(C4CCCC4)c(C(F)(F)F)c3)cc21 [(R)-2-(7-(4-cyclopentyl-3-(trifluoromethyl)benzyloxy)-1,2,3,4-tetrahydrocyclopenta[b]indol-3-yl)acetic acid]",agonist of the S1P1 receptor,0.102,exhibited activity for inducing PBL lowering (lymphopenia),exhibited activity for inducing PBL lowering (lymphopenia),exhibited activity for reducing mean ankle diameter,exhibited activity in the mouse EAE assay,no or substantially no reduction of heart rate,,,,,,,,,,
CCCCCCCCc1ccc(CCC(N)(CO)CO)cc1 [FTY720],,,,,,,,rapidly and reversibly induce lymphopenia,transient asymptomatic bradycardia,reduce the number of lesions detected by magnetic resonance imaging (MRI) and clinical disease activity,impair migration of dendritic cells infected with Francisella tularensis to the mediastinal lymph node,rapidly reduced ocular infiltrates,relieved ovariectomy-induced osteoporosis,potently blocked VEGF-induced vascular permeability,reduce the nociceptive behavior,impair initiation of murine contact hypersensitivity (CHS),completely prevented the development of experimental autoimmune myasthenia gravis (EAMG)
